Measured values taken from US20140323443A1, “TIGECYCLINE FORMULATIONS” (Fresenius Kabi USA, LLC, priority 2013, published 2014).

Assays:
[1] = cited from earlier work
[2] = pH of a saturated solution of tigecycline in water; format: physicochemical
Method: A solid composition that includes tigecycline and arginine may further include an acid and/or a base. The pH of a saturated solution of tigecycline in water is about 8. The amount of the acid and/or base may be an amount sufficient to provide a pH in the range of from 4 to 6 when a composition containing 53 mg tigecycline is reconstituted in 5.3 mL of an aqueous carrier liquid, such as 0.9% sodium chloride injection. Preferably the amount of the acid and/or base may be an amount sufficient to provide a pH in the range of from 4.25 to 5.75, from 4.5 to 5.75, from 4.5 to 5.5, or from 4.75 to 5.25 when a composition containing 53 mg tigecycline is reconstituted in 5.3 mL of an aqueous carrier liquid. In some embodiments, hydrochloric acid and/or sodium hydroxide is used to adjust pH.

[3] = aqueous liquid at 2-8° C., water sparged and tigecycline blanketed with inert gas, for 24 hours; cited from earlier work

In the case of `CN(C)c1cc(NC(=O)CNC(C)(C)C)c(O)c2c1C[C@H]1C[C@H]3[C@H](N(C)C)C(O)=C(C(N)=O)C(=O)[C@@]3(O)C(O)=C1C2=O` [tigecycline, (4S,4aS,5aR,12aS)-9-[2-(tert-butylamino)acetamido]-4,7-bis(dimethyl-amino)-1,4,4a,5,5a,6,11,12a-octahydro-3,10,12,12a-tetrahydroxy-1,11-dioxo-2-naphthacenecarboxamide], the oral bioavailability [1] is listed as “poor”, the “pH of a saturated solution in water” value [2] is listed as “about 8” and the “amount of tigecycline converted into degradants prior to lyophilization” value [3] is listed as “below 1%”.
